Results reported in patent publication US20020160055A1, “Methods for treating human immunodeficiency virus infections with gallium compositions” (priority 2000, published 2002).

Assays:
HIV-1 = assay: Inhibition of HIV replication in PHA/IL2 stimulated PBMC's (p24 antigen in culture supernatants); type: cell-based
Method: FIG. 1—Gallium Nitrate and Hydroxyurea Inhibition of HIV-1 Replication. PHA/IL-2 stimulated human PBMC's (1×10^6), and MT-2 cells (1×10^6) were grown and maintained in RPMI 1640 media containing 20% fetal calf sera, glutamine and antibiotics (Thelander & Reichard, 1979). Experiments were carried out in duplicate, and experiments repeated a minimum of three times. Gallium nitrate (Ga) was obtained from the National Cancer Institute. Hydroxyurea (HU) was obtained from Sigma Chemicals (St. Louis, Mo.). Ga and HU were added to PBMC's 24 hrs prior to infection, and cells were washed 16 hrs post-infection. Culture supernatants were obtained 4 and 7 days post-infection for p24 antigen measurement.
(§1) Various concentrations of Ga or HU were added to PHA/IL2 stimulated PBMC's 24 hours prior to infection with HIV. Following infection, cells were washed and culture supernatants were obtained 4 and 7 days post-infection.
HIV (Catalog# 1073, NIH AIDS Reference Program) was used in these studies. […] Viral replication was measured by determining the concentration of p24 antigen in culture supernatants (Organon-Teknika), and by visually observing a reduction in syncytia formation (Cook et al., 1997). In addition, a quantitative measurement of syncytia induction—inhibition was employed (described below). […]

HIV = details: results of U.S. Pat. No. 5,525,598; cited from earlier work
PBMC = assay: Effects on PBMC proliferation and viability (Trypan blue staining and counting); type: cell-based, human; details: 48 hrs
Method: FIG. 4—Effects of Gallium Nitrate on PBMC Proliferation and Viability. Experiments were carried out in duplicate, and experiments repeated a minimum of three times. Gallium nitrate (Ga) was obtained from the National Cancer Institute. Cells were incubated in Ga at concentrations noted, and were stained at 48 hrs with Trypan blue and counted.
as §1

NC(=O)NO [HU, Hydroxyurea]
IC50 (HIV-1; Human immunodeficiency virus 1, PHA/IL2 stimulated PBMC's, added 24 hours prior to infection, supernatants 4 and 7 days post-infection): 120 µM

Cc1cn([C@H]2C[C@H](N=[N+]=[N-])[C@@H](CO)O2)c(=O)[nH]c1=O [3′-azido-2,3′-deoxythymidine]
therapeutic index (HIV): 3680

O=[N+]([O-])[O-].O=[N+]([O-])[O-].O=[N+]([O-])[O-].[Ga+3] [Ga, Gallium nitrate]
fold lower IC50 of Ga than HU (HIV-1; present culture system): approximately 15 fold | effect on cellular proliferation or viability at concentrations inhibiting HIV replication (PBMC): did not inhibit cellular proliferation or viability
